In brackets after ≈: the same amount, converted by molar mass.
Columns and labels:
MCF7 [1] = test: Cytotoxicity against human MCF7 cells after 48 hrs by MTT assay; type: functional, cell-based; details: Homo sapiens, MCF7, 48 h; read-out: IC50
NB-4 = test: Cytotoxicity against human NB4 cells after 48 hrs by MTT assay; type: functional, cell-based; details: NB-4, 48 h
A549 [2] = test: Cytotoxicity against human A549 cells after 48 hrs by MTT assay; type: functional, cell-based; details: Homo sapiens, A549, 48 h; read-out: IC50
SH-SY5Y [3] = test: Cytotoxicity against human SH-SY5Y cells after 48 hrs by MTT assay; type: functional, cell-based
PC-3 = test: Cytotoxicity against human PC3 cells after 48 hrs by MTT assay; type: functional, cell-based; details: PC-3, 48 h
L5178Y = test: Cytotoxicity against mouse L5178Y cells by MTT assay; type: functional, cell-based
SF-268 = test: Cytotoxicity against human SF268 cells after 48 hrs by sulforhodamine B assay; type: functional, cell-based
MCF7 [4] = test: Cytotoxicity against human MCF7 cells after 48 hrs by sulforhodamine B assay; type: functional, cell-based
NCI-H460 = test: Cytotoxicity against human NCI-H460 cells after 48 hrs by sulforhodamine B assay; type: functional, cell-based
HepG2 [5] = test: Cytotoxicity against human HepG2 cells after 48 hrs by sulforhodamine B assay; type: functional, cell-based
HepG2 [6] = test: Cytotoxicity against human HepG2 cells by MTT assay; type: functional, cell-based
SH-SY5Y [7] = test: Cytotoxicity against human SH-SY5Y cells by MTT assay; type: functional, cell-based
[8] = Cytotoxicity against human KATO III cells after 72 hrs by MTT assay; type: functional, cell-based
A549 [9] = test: Cytotoxicity against human A549 cells after 72 hrs by MTT assay; type: functional, cell-based; details: A549, 72 h
Raji = test: Cytotoxicity against human Raji cells after 72 hrs by MTT assay; type: functional, cell-based
HepG2 [10] = test: Cytotoxicity against human HepG2 cells after 72 hrs by MTT assay; type: functional, cell-based; details: HepG2, 72 h
MCF7 [11] = test: Cytotoxicity against human MCF7 cells after 72 hrs by MTT assay; type: functional, cell-based; details: MCF7, 72 h
HL-60 = test: Cytotoxicity against human HL60 cells after 72 hrs by MTT assay; type: functional, cell-based; details: HL-60, 72 h
A549 [12] = test: Cytotoxicity against human A549 cells by MTT assay; type: functional, cell-based
MCF7 [13] = test: Cytotoxicity against human MCF7 cells by MTT assay; type: functional, cell-based
L02 = test: Cytotoxicity against human L02 cells by MTS assay; type: cell-based

CN1C(=O)[C@]23O[C@]4(O)[C@@H](O)C(=O)N5C(C)(C)[C@H](Cc6cccc1c62)[C@H]3[C@@]54O
IC50 (MCF7 [1]): 1.2 to 4.2 µM | IC50 (NB-4): 1.2 to 4.2 µM | IC50 (A549 [2]): 1.2 to 4.2 µM | IC50 (SH-SY5Y [3]): 1.2 to 4.2 µM | IC50 (PC-3): 1.2 to 4.2 µM

COc1cc(O)c2c(c1)C(=O)C1=C(C2=O)[C@H](O)[C@@H](O)[C@@](C)(O)C1
IC50 (L5178Y): 9.4 µM

CCC/C=C/[C@H]1C=CC(=O)[C@H](O)[C@H]1C(=O)C(C)O (stereo partly specified)
IC50 (SF-268; Homo sapiens, SF-268, 48 h): 40.5 µM | IC50 (MCF7 [4]; Homo sapiens, MCF7, 48 h): 15.7 µM | IC50 (NCI-H460; Homo sapiens, NCI-H460, 48 h): 36.4 µM | IC50 (HepG2 [5]; Homo sapiens, HepG2, 48 h): 46.8 µM

COc1ccc2c(c1CC=C(C)C)C=C(C)OC2
IC50 (HepG2 [6]): 8.2 µM | IC50 (SH-SY5Y [7]): 6.8 µM

C[C@H]1[C@H](O)CCC(C)(C)[C@@]12CC=C(C(=O)O)CC2
IC50 [8]: 35 µM

CS[C@@]1(CO)C(=O)N(C)[C@@](Cc2cn([C@@]34C[C@@]5(SC)C(=O)N(C)[C@](CO)(SC)C(=O)N5[C@]3(C)Nc3ccccc34)c3ccccc23)(SC)C(=O)N1C
IC50 (MCF7 [1]): 8.3 µg/mL

COC1=CC(=O)OC2C1[C@H](O)CO[C@H]2O (stereo partly specified)
IC50 (A549 [9]): 1 to 26.8 µg/mL | IC50 (Raji): 1 to 26.8 µg/mL (≈ 4.63 to 124 µM) | IC50 (HepG2 [10]): 1 to 26.8 µg/mL | IC50 (MCF7 [11]): 1 to 26.8 µg/mL | IC50 (HL-60): 1 to 26.8 µg/mL (≈ 4.63 to 124 µM)

COc1ccc(CCCO)c2cc(CC(C)=O)oc(=O)c12
IC50 (MCF7 [1]): 2.8 to 8.8 µM | IC50 (NB-4): 2.8 to 8.8 µM | IC50 (A549 [2]): 2.8 to 8.8 µM | IC50 (SH-SY5Y [3]): 2.8 to 8.8 µM | IC50 (PC-3): 2.8 to 8.8 µM

COc1ccc(C(CO)C(O)CO)c2oc3c(O)c(O)cc(O)c3c(=O)c12 (stereo unspecified)
IC50 (SH-SY5Y [7]): 4.2 µM

C[C@H]1[C@@H](O)CCC(C)(C)[C@@]12CC=C(C(=O)O)CC2
IC50 [8]: 25.3 µM

Cc1cc(O)c2c(c1)C(=O)c1c(c(O)cc(O)c1-c1c(O)cc(O)c3c1C(=O)c1cc(CC(C)O)cc(O)c1C3=O)C2=O (stereo unspecified)
IC50 (MCF7 [1]): 20.8 µg/mL

C[C@H]1C(=O)N2c3ccccc3[C@@]3(O)C[C@H](n4cnc5ccccc5c4=O)C(=O)N1[C@@H]23
IC50 (PC-3): 32.2 µM

C[C@@H]1CC2=C(CO1)C(=O)[C@@](C)(O)[C@@H](O)C2
IC50 (A549 [12]): 41.9 µM | IC50 (MCF7 [13]): 2.5 µM

COC(=O)[C@]1(Cc2ccc(OC)c(CC=C(C)C)c2O)OC(=O)C(O)=C1c1ccc(O)cc1
IC50 (HepG2 [6]): 4.8 µM | IC50 (L02): 3.9 µM

CC1=C2C(=C[C@H](O)C(O)=C2O)[C@H](C)[C@@H](C)O1
IC50 (A549 [9]): 23.7 µM | IC50 (HepG2 [10]): 35.7 µM

COC(=O)CCCN1C(=O)[C@@]23O[C@@]4(O)[C@@]5(O)[C@@H]2[C@@H](Cc2cccc1c23)C(C)(C)N5C(=O)[C@]4(O)[C@@H](C)O
IC50 (MCF7 [1]): < 10 µM | IC50 (NB-4): < 10 µM | IC50 (A549 [2]): < 10 µM | IC50 (SH-SY5Y [3]): < 10 µM

CC[C@@H](C)C[C@H](/C=C(\C)[C@H](O)[C@H](C)/C=C(\C)[C@H](O)[C@H](C)/C=C/[C@H](O)[C@H](C)/C=C(\C)C=O)CO
IC50 (L5178Y): 4.1 µM

COc1c(O)cc2c(c1CC=C(C)C)C=C(C)OC2
IC50 (A549 [12]): 9.4 µM | IC50 (HepG2 [6]): 8.8 µM

CCC(=O)Cc1c(OC)cc(=O)oc1CO
IC50 (A549 [9]): 1 to 26.8 µg/mL | IC50 (Raji): 1 to 26.8 µg/mL (≈ 4.42 to 118 µM) | IC50 (HepG2 [10]): 1 to 26.8 µg/mL | IC50 (MCF7 [11]): 1 to 26.8 µg/mL | IC50 (HL-60): 1 to 26.8 µg/mL (≈ 4.42 to 118 µM)

C/C=C(\C)C(=O)[C@@H](C)c1cc(O)c2c(c1O)O[C@]1(C)CC[C@H]3O[C@@H](C(C)(C)O)CC[C@]3(C)[C@H]1C2=O
IC50 (SF-268; Homo sapiens, SF-268, 48 h): 6.4 to 42.6 µM | IC50 (MCF7 [4]; Homo sapiens, MCF7, 48 h): 6.4 to 42.6 µM | IC50 (NCI-H460; Homo sapiens, NCI-H460, 48 h): 6.4 to 42.6 µM | IC50 (HepG2 [5]; Homo sapiens, HepG2, 48 h): 6.4 to 42.6 µM

COC(=O)[C@@H](C[C@@H](OC)c1c(OC)cc(O)c2c(=O)cc(C)oc12)OC
IC50 [8]: 21.4 µM

COc1cc(O)c2c(=O)cc(C)oc2c1[C@H](C[C@@H](OC)C(=O)O)OC
IC50 (MCF7 [11]): 17.7 µM | IC50 [8]: 16 µM

CC(C)[C@@H]1CC[C@](C)(O)C2=C1C(=O)[C@](C)(O)C[C@@H]2O
IC50 (A549 [12]): 0.2 µM | IC50 (MCF7 [13]): 5.9 µM

COc1ccc2c(c1)N(C(=O)C=C(C)C)C1C2[C@H](O)[C@@]2(O)C(=O)N3CCC[C@H]3C(=O)N2[C@H]1CC(C)(C)O (stereo partly specified)
IC50 (PC-3): 30.6 µM

C/C1=C\C(=O)OC[C@]23CCC(C(=O)O)=C[C@H]2O[C@@H]2CC(OC(=O)/C=C\C=C\[C@H]([C@H](C)O)OCC1)[C@@]3(C)[C@]21CO1 (stereo partly specified)
IC50 (SF-268; sf-268): 0.751 µM | IC50 (MCF7 [4]; mcf7): 0.17 µM | IC50 (NCI-H460; nci-h460): 0.36 µM | IC50 (HepG2 [5]; hepg2): 0.38 µM

COc1cc(=O)oc(CO)c1[C@H](C)O
IC50 (A549 [9]): 1 to 26.8 µg/mL | IC50 (Raji): 1 to 26.8 µg/mL (≈ 5 to 134 µM) | IC50 (HepG2 [10]): 1 to 26.8 µg/mL | IC50 (MCF7 [11]): 1 to 26.8 µg/mL | IC50 (HL-60): 1 to 26.8 µg/mL (≈ 5 to 134 µM)

CCC(=O)Cc1c(OC)cc(=O)oc1C
IC50 (A549 [9]): 1 to 26.8 µg/mL | IC50 (Raji): 1 to 26.8 µg/mL (≈ 4.76 to 127 µM) | IC50 (HepG2 [10]): 1 to 26.8 µg/mL | IC50 (MCF7 [11]): 1 to 26.8 µg/mL | IC50 (HL-60): 1 to 26.8 µg/mL (≈ 4.76 to 127 µM)

COc1cc(C)c2c(c1)oc(=O)c1c(O)cc(O[C@@H]3O[C@H](CO)[C@H](O)[C@H](O)[C@H]3O)cc12
IC50 (L02): 7.2 µg/mL
